Source: ChEMBL document CHEMBL1153151, “Novel P2-P4 macrocyclic inhibitors of HCV NS3/4A protease by P3 succinamide fragment depeptidization strategy” (Bioorg Med Chem Lett, 2010)

Key:
[1] = Inhibition of HCV NS3/4A protease; design: species or system Hepacivirus hominis
Rattus norvegicus [2] = assay: AUC (0 to infinity) in Wistar rat plasma at 4 mg/kg, po; type: ADME, organism-based; design: time infinity, dose 4 mg/kg, route oral; settings: in vivo
[3] = (§1) Cmax in Wistar rat at 4 mg/kg, po; type: ADME, organism-based; design: dose 4 mg/kg, route oral; settings: Wistar, in vivo
[4] = Drug level in Wistar rat liver at 4 mg/kg, po after 4 hrs; type: ADME, organism-based; design: dose 4 mg/kg, route oral; settings: read-out: AUC
Hepatitis C virus = assay: Antiviral activity against HCV 1b infected in Huh7 cells assessed as inhibition viral subgenomic replication by luciferase based replicon assay; type: functional, organism-based, Hepacivirus hominis; settings: genotype 1b, Huh-7
Rattus norvegicus [5] = assay: as §1; type: ADME, organism-based; design: dose 4 mg/kg, route oral; settings: in vivo, BLD = below limit of detection

SMILES | Ki [1] [nM] | AUC (Rattus norvegicus [2]) [µM·h] | Cmax [3] [nM] | concentration at 4 h [4] [nM] | EC50 (Hepatitis C virus) [nM] | Cmax (Rattus norvegicus [5])
C=C[C@@H]1C[C@]1(NC(=O)[C@@H]1C[C@@H]2CN1C(=O)[C@H](C1CCCCC1)CC(=O)NCCCCCc1cccc3c1CN(C3)C(=O)O2)C(=O)NS(=O)(=O)C1CC1 | 0.76 | 0.12 | 50 | 2200 | 12 | 
C=C[C@@H]1C[C@]1(NC(=O)[C@@H]1C[C@@H]2CN1C(=O)[C@H](C(C)C)CC(=O)NCCCCCc1cccc3c1CN(C3)C(=O)O2)C(=O)NS(=O)(=O)C1CC1 | 1.4 |  |  |  | 100 | 
C=C[C@@H]1C[C@]1(NC(=O)[C@@H]1C[C@@H]2CN1C(=O)[C@H](C1CCCCC1)CC(=O)N(C(C)C)CCCCCc1cc(OC)cc3nc(-c4ccccc4)cc(c13)O2)C(=O)NS(=O)(=O)C1CC1 | 0.6 | 1.1 | 380 | 9300 | 37 | 
C=C[C@@H]1C[C@]1(NC(=O)[C@@H]1C[C@@H]2CN1C(=O)[C@H](C1CCCCC1)CC(=O)N(C(C)C)CCCCCc1cccc3c1CN(C3)C(=O)O2)C(=O)NS(=O)(=O)C1CC1 | 0.61 | 0.09 | 90 | 3000 | 11 | 
C=C[C@@H]1C[C@]1(NC(=O)[C@@H]1C[C@@H]2CN1C(=O)[C@H](C1CCCCC1)CC(=O)NCCCCCc1cc(OC)cc3nc(-c4ccccc4)cc(c13)O2)C(=O)NS(=O)(=O)C1CC1 | 0.56 |  |  | 100 | 7 | BLD
C=C[C@@H]1C[C@]1(NC(=O)[C@@H]1C[C@@H]2CN1C(=O)[C@H](C(C)C)NC(=O)OCCC/C=C\c1cccc3c1CN(C3)C(=O)O2)C(=O)NS(=O)(=O)C1CC1 | 0.06 |  |  |  | 12 | 
C=C[C@@H]1C[C@]1(NC(=O)[C@@H]1C[C@@H]2CN1C(=O)[C@H](C(C)C)CC(=O)N(C(C)C)CCCCCc1cccc3c1CN(C3)C(=O)O2)C(=O)NS(=O)(=O)C1CC1 | 0.72 | 0.22 | 80 | 2200 | 35 | 
